The test system of the first test is helical strips of pulmonary artery of guinea pigs. Nature of the test: calcium-antagonistic action: inhibition of CaCl2-induced contraction of potassium-depolarised helical strips of pulmonary artery. The format is cell-based. To be noted: Cavia porcellus; guinea pig pulmonary artery strips, calcium-free Tyrode's solution, 40 mmol potassium, 0.5 mmol CaCl2; mean value from 4 to 6 strips; read-out: IC50 (concentration of the test substance which inhibits contraction by 50%). The method, then: This entailed helical strips of pulmonary artery of guinea pigs being equilibrated in calcium-free Tyrode's solution and depolarised with 40 mmol of potassium. Addition of 0.5 mmol of CaCl2 then initiates contraction. The relaxant action of the test substance is determined by cumulative addition of concentrations increasing in steps of 1/2 log 10.
Consider `CC1=C(C(=O)OCC(C)C)C(c2cccc([N+](=O)[O-])c2)C(c2nnco2)=C(C)N1` (stereo not shown) [Example 1z, Isobutyl 1,4-dihydro-2,6-dimethyl-4-(3-nitrophenyl)-5-(1,3,4-oxadiazol-2-yl)pyridine-3-carboxylate], for which the IC50 was 0.15 nM. Same read-out and setting: under `COC(=O)C1=C(C)NC(C)=C(c2nnco2)C1c1cccc(Cl)c1Cl` (stereo not shown) [Example 2b, Methyl 1,4-dihydro-2,6-dimethyl-4-(2,3-dichlorophenyl)-5-(1,3,4-oxadiazol-2-yl)pyridine-3-carboxylate] stands 0.4 nM; under `COC(=O)C1=C(C)NC(C)=C(c2nnc(C)o2)C1c1cccc(Cl)c1Cl` (stereo not shown) [Example 2e, Methyl 1,4-dihydro-2,6-dimethyl-4-(2,3-dichlorophenyl)-5-(5-methyl-1,3,4-oxadiazol-2-yl)pyridine-3-carboxylate], 1.6 nM. The same measure, in the same setting: under `CC1=C(C(=O)OC(C)C)C(c2cccc([N+](=O)[O-])c2)C(c2nnco2)=C(C)N1` (stereo not shown) [Example 2n, Isopropyl 1,4-dihydro-2,6-dimethyl-4-(3-nitrophenyl)-5-(1,3,4-oxadiazol-2-yl)pyridine-3-carboxylate] stands 0.09 nM; under `COCCOC(=O)C1=C(C)NC(C)=C(c2nnco2)C1c1ccccc1[N+](=O)[O-]` (stereo not shown) [Example 2o, 2-Methoxyethyl 1,4-dihydro-2,6-dimethyl-4-(2-nitrophenyl)-5-(1,3,4-oxadiazol-2-yl)pyridine-3-carboxylate], 0.3 nM. Still for that read-out and setting: to `COC(=O)C1=C(C)NC(C)=C(c2nc(Cc3ccccc3)no2)C1c1cccc([N+](=O)[O-])c1` (stereo not shown) [Example 2r, Methyl 1,4-dihydro-2,6-dimethyl-4-(3-nitrophenyl)-5-(3-benzyl-1,2,4-oxadiazol-5-yl)pyridine-3-carboxylate] belongs 0.5 nM; to `COC(=O)C1=C(C)NC(C)=C(c2nc(Cc3ccccc3)no2)C1c1cccc(Cl)c1Cl` (stereo not shown) [Example 2s, Methyl 1,4-dihydro-2,6-dimethyl-4-(2,3-dichlorophenyl)-5-(3-benzyl-1,2,4-oxadiazol-5-yl)pyridine-3-carboxylate], 0.7 nM. Regarding `COC(=O)C1=C(C)NC(C)=C(c2nc(Cc3ccccc3)no2)C1c1ccccc1[N+](=O)[O-]` (stereo not shown) [Example 2t, Methyl 1,4-dihydro-2,6-dimethyl-4-(2-nitrophenyl)-5-(3-benzyl-1,2,4-oxadiazol-5-yl)pyridine-3-carboxylate], the IC50 worked out at 1 nM.

Consider `COCCOC(=O)C1=C(C)NC(C)=C(c2nc(Cc3ccccc3)no2)C1c1cccc([N+](=O)[O-])c1` (stereo not shown) [Example 2v, 2-Methoxyethyl 1,4-dihydro-2,6-dimethyl-4-(3-nitrophenyl)-5-(3-benzyl-1,2,4-oxadiazol-5-yl)pyridine-3-carboxylate], for which the IC50 turned out to be 0.7 nM. As to `COC(=O)C1=C(C)NC(C)=C(c2nc(Cc3ccccc3)no2)C1c1ccccc1Cl` (stereo not shown) [Example 2w, Methyl 1,4-dihydro-2,6-dimethyl-4-(2-chlorophenyl)-5-(3-benzyl-1,2,4-oxadiazol-5-yl)pyridine-3-carboxylate], the IC50 turned out to be 2.5 nM. Still for that read-out and setting: under `CC1=C(C(=O)OCCOC(C)C)C(c2cccc(Cl)c2Cl)C(c2nnc(C)o2)=C(C)N1` (stereo not shown) [Example 2z1, 2-Isopropoxyethyl 1,4-dihydro-2,6-dimethyl-4-(2,3-dichlorophenyl)-5-(2-methyl-1,3,4-oxadiazol-5-yl)pyridine-3-carboxylate] stands 1.5 nM; under `CC1=C(C(=O)OC(C)C)C(c2cccc(Cl)c2Cl)C(c2nnco2)=C(C)N1` (stereo not shown) [Example 2z2, Isopropyl 1,4-dihydro-2,6-dimethyl-4-(2,3-dichlorophenyl)-5-(1,3,4-oxadiazol-2-yl)pyridine-3-carboxylate], 0.2 nM. Still for that read-out and setting: under `CC1=C(c2nnco2)C(c2cccc([N+](=O)[O-])c2)C(c2nnco2)=C(C)N1` [Example 3a, 1,4-Dihydro-2,6-dimethyl-3,5-di(1,3,4-oxadiazol-2-yl)-4-(3-nitrophenyl)pyridine] stands 2 nM; under `CCc1noc(C2=C(C)NC(C)=C(C(=O)OCCOC)C2c2cccc(Cl)c2Cl)n1` (stereo not shown) [Example 4b, 2-Methoxyethyl 1,4-dihydro-2,6-dimethyl-4-(2,3-dichlorophenyl)-5-(3-ethyl-1,2,4-oxadiazol-5-yl)pyridine-3-carboxylate], 1.8 nM; under `CCc1noc(C2=C(C)NC(C)=C(C(=O)OC)C2c2cccc(Cl)c2Cl)n1` (stereo not shown) [Example 4c, Methyl 1,4-dihydro-2,6-dimethyl-4-(2,3-dichlorophenyl)-5-(3-ethyl-1,2,4-oxadiazol-5-yl)pyridine-3-carboxylate], 2.4 nM.

`CCc1nnc(C2=C(C)NC(C)=C(C(=O)OCCOC)C2c2cccc([N+](=O)[O-])c2)o1` (stereo not shown) [Example 4k, 2-Methoxyethyl 1,4-dihydro-2,6-dimethyl-4-(3-nitrophenyl)-5-(2-ethyl-1,3,4-oxadiazol-5-yl)pyridine-3-carboxylate]: the IC50 amounted to 1 nM. The same measure, in the same setting: to `CCc1nnc(C2=C(C)NC(C)=C(C(=O)OCCOC)C2c2cccc(Cl)c2Cl)o1` (stereo not shown) [Example 4m, 2-Methoxyethyl 1,4-dihydro-2,6-dimethyl-4-(2,3-dichlorophenyl)-5-(2-ethyl-1,3,4-oxadiazol-5-yl)pyridine-3-carboxylate] belongs 1.5 nM; to `CCOC(=O)c1sc(C2=C(C)NC(C)=C(C(=O)OCCOC)C2c2cccc([N+](=O)[O-])c2)nc1C` (stereo not shown) [Example 5b, 2-Methoxyethyl 1,4-dihydro-2,6-dimethyl-4-(3-nitrophenyl)-5-(4-methyl-5-ethoxycarbonyl-2-thiazolyl)pyridine-3-carboxylate], 1.6 nM.

The same test, now with this note: guinea pig pulmonary artery strips, calcium-free Tyrode's solution, 40 mmol potassium, 0.5 mmol CaCl2; mean value from 4 to 6 strips; read-out: IC50 (concentration of the test substance which inhibits contraction by 50%).
As for “2-Methylethyl 1,4-dihydro-2,6-dimethyl-4-(3-cyanophenyl)-5-(3-methyl-1,2,4-oxadiazol-5-yl)pyridine-3-carboxylate [Example 1t]”, the IC50 came to 1.5 nM.

The values above are taken from US4558058A, “Substituted 1,4-dihydropyridines and their use as medicaments” (Cassella Aktiengesellschaft, priority 1982, dated 1985).
